From patent US20220143081A1, “SYSTEM AND METHOD OF TREATING INFLAMMATORY LUNG DISEASES” (priority 2020, published 2022)

What was measured:
[1] = Blood cell effects in rats, including total body X-irradiation; format: in vivo
HIV = format: cell-based; conditions: in vitro
SARS-CoV-2 [2] = format: cell-based; conditions: commercially available nasal spray tested at 5-fold dilution
[3] = system: monocytes, macrophages and lymphocytes; test: In vitro experiments in monocytes, macrophages and lymphocytes; format: cell-based
[4] = system: PBMCs isolated from normal donors; test: Gene expression in PBMCs by quantitative RT-PCR (Light Cycler System); format: cell-based, human
[5] = Humoral and cellular immunity (Jerne plaque and footpad swelling tests); format: in vivo
SARS-CoV-2 [6] = format: cell-based
[7] = system: radiation-induced, chemical-induced and metastatic malignant and benign tumors; test: Antitumor effects against induced and metastatic tumors; format: in vivo
[8] = Human wound healing model (skin blister); format: in vivo

tetrachlorodecaoxide [TCDO]
proportion of granulocytes, PBMCs and LGLs [1]: increased the proportion of granulocytes, peripheral blood monocytes (PBMCs) and large granular lymphocytes (LGLs)
erythropoiesis ([1]; after total body X-irradiation): stimulated erythropoiesis
anti-HIV properties (HIV): displayed anti-HIV properties
inhibition of viral propagation (SARS-CoV-2 [2]): highly potent
antigen presentation [3]: decrease antigen presentation
macrophage tumor necrosis factor (TNF) expression [3]: decrease macrophage tumor necrosis factor (TNF) expression
macrophage-fibroblast cooperation [3]: enhance macrophage-fibroblast cooperation
oxidative burst in monocytes [3]: stimulate an oxidative burst in monocytes
phagocytosis [3]: increase phagocytosis
CD14 cell (macrophage) inflammatory gene expression [4]: short-term upregulation
inducible gene expression related to macrophage dependent T-cell activation (IL-2, IL-4, IL-17) [4]: notable inhibition
humoral and cellular immune responses ([5]; Jerne plaque and footpad swelling tests): increased both the humoral and cellular immune responses
proportions of T-helper and T-suppressor/cytotoxic cells ([5]; spleen and thymus): altered proportions of T-helper and T-suppressor/cytotoxic cells
cytopathic effect and SARS-CoV-2 infection of Vero E6 cells (SARS-CoV-2 [6]): significantly reduced
direct antitumor effects [7]: displayed direct antitumor effects
number of macrophages infiltrating the skin blister [8]: increased the number of macrophages infiltrating the skin blister
